Measurements from patent publication US4996201A, “4-(N-substituted amino)-2-butynyl-1-carbamates and thiocarbamates and derivatives thereof as centrally acting muscarinic agents” (Warner-Lambert Co., priority 1989, dated 1991).
Where a name gives a salt, the structure may show the parent alone.

Assays:
laboratory rats = assay: Scopolamine Induced Swimming Assay (SIS); format: in vivo, rat; settings: for reversal of scopolamine-induced swimming hyperactivity: rats given scopolamine, result in words
Experimental: In the Scopolamine Induced Swimming Assay (SIS) the ability of a test compound to reverse the hyperactive swimming behavior of laboratory rats given scopolamine is determined. In the assay, untreated rats generally swim between 20 to 30 meters during a five-minute test period. […] The effect of scopolamine is centrally mediated. Thus, the ability of the test compound to reverse the hyperactive swimming behavior induced by scopolamine is a measure of the central cholinergic activity of the compound.

[1] = test system: central muscarinic antagonist site; format: binding; settings: rat cerebral cortex tissue; radiolabeled quinuclidinyl benzilate; (1 μM); read-out: RQNB IC50
[2] = target: central muscarinic agonist site; assay: Receptor [3H]Cis-methyldioxalane Assay (RCMD), central muscarinic agonist site binding; settings: rat cerebral cortex tissue; radiolabeled cis-methyldioxalane; head also prints (0.1 μM)
[3] = test system: human SK-N-SH cells bearing muscarinic binding sites; assay: Muscarinic Induced Inositol Phosphate Accumulation Assay (MIPA); format: cell-based; settings: inositol phosphate production, concentration for response 50% of the maximum, read-out: Agonist Response ED50
Experimental: In the Muscarinic Induced Inositol Phosphate Accumulation Assay (MIPA) human SK-N-SH cells bearing muscarinic binding sites are incubated with the test compound. The production of inositol phosphates is then measured. Stimulation of inositol phosphate turnover reflects the degree of muscarinic agonist activity of the test compound. The concentration of test compound required to produce a response 50% of the maximum is then determined.

mice = settings: cited from earlier work
[4] = in vivo; cited from earlier work
[5] = in vivo; cited from earlier work; remark: listed apart in the source
[6] = test system: aged humans and nonhuman primates; settings: acetylcholinesterase inhibitor; cited from earlier work

Q: Which “swimming distance increase above baseline values” (laboratory rats; scopolamine 0.1 mg/kg, five-minute test period, rats) does the source give for `CN1[C@@H]2C[C@@H](OC(=O)[C@H](CO)c3ccccc3)C[C@H]1[C@@H]1O[C@@H]12` [scopolamine] here?
A: The value was 75-125%.

Q: Which IC50 [1] does the source give for `COC(=O)N(C)CC#CCN1CCCCCC1` [Example 1g, Methyl[4-(hexahydro-1H-azepin-1-yl]-2-butynyl]methylcarbamate, ethanedioate (1:1) (salt)] here?
A: Its IC50 is 1.95 µM.

Q: And the IC50 [2]?
A: Its IC50 is 0.958 µM.

Q: For `COC(=O)C1=CCCN(C)C1` [arecoline], which “reversal of scopolamine-induced swimming hyperactivity” value (laboratory rats) is on record?
A: The value was “can be reversed”.

Q: What does the source list for `COC(=O)N(C)CC#CCN(C)C` [Example 2, Methyl[4-(dimethylamino)-2-butynyl]methyl-carbamate, ethanedioate (1:1)(salt)]?
A: IC50 [1]: 46.6 µM; IC50 [2]: 0.063 µM; EC50 [3]: 59.2 µM

Q: Which “duration of profound tremor of the head and limbs” value (mice) does the source give for `C(#CCN1CCCC1)CN1CCCC1` [tremorine, 1,4-dipyrrolidino-2-butyne] here?
A: Its value is “more than one”.

Q: What about the “conversion to active metabolite oxotremorine” value [4] of the same molecule?
A: Its value is “converted to an active metabolite, oxotremorine”.

Q: With `Nc1ccncc1N` [3,4-diaminopyridine] as the molecule, how does the age-related cognitive deficits [5] read?
A: The age-related cognitive deficits was “ameliorate age-related cognitive deficits”.

Q: For `COC(=O)N(C)CC#CCN1CCCC1` [Example 1, Methyl[methyl4-(1-pyrrolidinyl]-2-butynyl]]-carbamate, ethanedioate (1:1) (salt)], which IC50 [1] is on record?
A: Its IC50 is 2.66 µM.

Q: What about the IC50 [2] of the same molecule?
A: Its IC50 is 0.0143 µM.

Q: And the EC50 [3]?
A: The EC50 was 10 µM.

Q: And the minimal effective dose (laboratory rats; Rattus norvegicus, Minimal Effective Dose to reverse scopolamine (0.1 mg/kg) induced hyperactive swimming in rats, read-out: Reversal of SIS Hyperactivity MED)?
A: Its minimal effective dose is 10 mg/kg.

Q: Which “reversal of scopolamine-induced swimming hyperactivity” value (laboratory rats) does the source give for `CNC(=O)Oc1ccc2c(c1)[C@]1(C)CCN(C)[C@@H]1N2C` [physostigmine] here?
A: Its value is “can be reversed”.

Q: And the memory [6]?
A: Its memory is “improved memory”.

Q: With `COC(=O)N(C)CC#CCN1CCCCC1` [Example 1f, Methyl methyl[4-(1-piperidinyl]-2-butynyl-carbamate, ethanedioate (1:1) (salt)] as the molecule, how does the IC50 [1] read?
A: The IC50 was 4.99 µM.

Q: And the IC50 [2]?
A: Its IC50 is 1.57 µM.
